Test: xn = mol fraction of the nth substance listed
Details: Liquid, Bellows volumetry

C=CC [propene] + Cc1ccccc1
Details	mass density [kg/m3]
295.7 K, 700 kPa, x1 = 0.53	679.7
295.7 K, 1000 kPa, x1 = 0.53	680.5
295.7 K, 1400 kPa, x1 = 0.53	681.2
295.7 K, 1900 kPa, x1 = 0.53	681.6
295.7 K, 2300 kPa, x1 = 0.53	682.4
295.7 K, 2900 kPa, x1 = 0.53	683.2
295.7 K, 3400 kPa, x1 = 0.53	684
295.7 K, 3600 kPa, x1 = 0.53	684
295.7 K, 5200 kPa, x1 = 0.53	685.5
295.7 K, 7300 kPa, x1 = 0.53	688.3
295.7 K, 8600 kPa, x1 = 0.53	689.5
295.7 K, 10700 kPa, x1 = 0.53	691.9
295.7 K, 13500 kPa, x1 = 0.53	694.7
295.7 K, 23900 kPa, x1 = 0.53	704.6
295.7 K, 31000 kPa, x1 = 0.53	710.9
295.7 K, 37900 kPa, x1 = 0.53	716
295.7 K, 44100 kPa, x1 = 0.53	720.7
295.7 K, 51800 kPa, x1 = 0.53	726.4
295.7 K, 58300 kPa, x1 = 0.53	730.4
295.7 K, 63200 kPa, x1 = 0.53	733.6
295.7 K, 67000 kPa, x1 = 0.53	735.9
295.9 K, 200 kPa, x1 = 0.1159	797.6
295.9 K, 300 kPa, x1 = 0.1159	798.9
295.9 K, 600 kPa, x1 = 0.1159	799.5
295.9 K, 1300 kPa, x1 = 0.1159	800.1
295.9 K, 2000 kPa, x1 = 0.1159	800.7
295.9 K, 3500 kPa, x1 = 0.1159	802
295.9 K, 7200 kPa, x1 = 0.1159	805.2
295.9 K, 10200 kPa, x1 = 0.1159	807.7
295.9 K, 13500 kPa, x1 = 0.1159	810.3
296.4 K, 1000 kPa, x1 = 0.7612	606.8
296.4 K, 1400 kPa, x1 = 0.7612	610
296.4 K, 2200 kPa, x1 = 0.7612	611.2
296.4 K, 3300 kPa, x1 = 0.7612	613.2
296.4 K, 5200 kPa, x1 = 0.7612	616.4
296.4 K, 6900 kPa, x1 = 0.7612	619.3
296.4 K, 10300 kPa, x1 = 0.7612	624.6
296.4 K, 10400 kPa, x1 = 0.7612	624.6
296.4 K, 13800 kPa, x1 = 0.7612	629.7
296.4 K, 17200 kPa, x1 = 0.7612	634.4
296.4 K, 24100 kPa, x1 = 0.7612	643.5
296.4 K, 31100 kPa, x1 = 0.7612	652.1
296.4 K, 37700 kPa, x1 = 0.7612	659.4
296.4 K, 44500 kPa, x1 = 0.7612	666
296.4 K, 51400 kPa, x1 = 0.7612	672.7
296.4 K, 57800 kPa, x1 = 0.7612	678
296.4 K, 62900 kPa, x1 = 0.7612	682
296.4 K, 66900 kPa, x1 = 0.7612	685
324.6 K, 1700 kPa, x1 = 0.7612	572
324.6 K, 1900 kPa, x1 = 0.7612	572.3
324.6 K, 2600 kPa, x1 = 0.7612	574.4
324.6 K, 3600 kPa, x1 = 0.7612	576.9
324.6 K, 5300 kPa, x1 = 0.7612	580.5
324.6 K, 7000 kPa, x1 = 0.7612	584.1
324.6 K, 10500 kPa, x1 = 0.7612	591.1
324.6 K, 17400 kPa, x1 = 0.7612	603.7
324.6 K, 24200 kPa, x1 = 0.7612	614.4
324.6 K, 30900 kPa, x1 = 0.7612	623.8
324.6 K, 37800 kPa, x1 = 0.7612	632.7
324.6 K, 44500 kPa, x1 = 0.7612	640.5
324.6 K, 51500 kPa, x1 = 0.7612	648.4
324.6 K, 58400 kPa, x1 = 0.7612	655.7
324.6 K, 63100 kPa, x1 = 0.7612	660.3
324.6 K, 67000 kPa, x1 = 0.7612	664.1
324.8 K, 300 kPa, x1 = 0.1159	771
324.8 K, 600 kPa, x1 = 0.1159	771.6
324.8 K, 1100 kPa, x1 = 0.1159	772.2
324.8 K, 1600 kPa, x1 = 0.1159	772.8
324.8 K, 2000 kPa, x1 = 0.1159	773.4
324.8 K, 2500 kPa, x1 = 0.1159	774
324.8 K, 3300 kPa, x1 = 0.1159	774.6
324.8 K, 5000 kPa, x1 = 0.1159	776.3
324.8 K, 7000 kPa, x1 = 0.1159	778.7
324.8 K, 10200 kPa, x1 = 0.1159	781.7
324.8 K, 13500 kPa, x1 = 0.1159	784.7
324.8 K, 16900 kPa, x1 = 0.1159	787.7
324.8 K, 20400 kPa, x1 = 0.1159	791.4
324.8 K, 23600 kPa, x1 = 0.1159	793.9
324.8 K, 31300 kPa, x1 = 0.1159	800.7
324.8 K, 37800 kPa, x1 = 0.1159	805.8
374.3 K, 3700 kPa, x1 = 0.7612	493.5
374.3 K, 3800 kPa, x1 = 0.7612	494.1
374.3 K, 5300 kPa, x1 = 0.7612	503.1
374.3 K, 6900 kPa, x1 = 0.7612	511.6
374.3 K, 8400 kPa, x1 = 0.7612	518.3
374.3 K, 10400 kPa, x1 = 0.7612	526
374.3 K, 17200 kPa, x1 = 0.7612	547.4
374.3 K, 23900 kPa, x1 = 0.7612	562.2
374.3 K, 30800 kPa, x1 = 0.7612	574.7
374.3 K, 37700 kPa, x1 = 0.7612	586.8
374.3 K, 44200 kPa, x1 = 0.7612	596.6
375.3 K, 700 kPa, x1 = 0.1159	723.9
375.3 K, 900 kPa, x1 = 0.1159	724.4
375.3 K, 1400 kPa, x1 = 0.1159	725.5
375.3 K, 2000 kPa, x1 = 0.1159	726.5
375.3 K, 2500 kPa, x1 = 0.1159	727.6
375.3 K, 3400 kPa, x1 = 0.1159	728.6
375.3 K, 5200 kPa, x1 = 0.1159	731.2
375.3 K, 6900 kPa, x1 = 0.1159	733.8
375.3 K, 10100 kPa, x1 = 0.1159	737.6
375.3 K, 17200 kPa, x1 = 0.1159	746.2
375.3 K, 23700 kPa, x1 = 0.1159	753.4
375.3 K, 30800 kPa, x1 = 0.1159	760.7
375.3 K, 37600 kPa, x1 = 0.1159	767
375.4 K, 2600 kPa, x1 = 0.53	588.6
375.4 K, 2900 kPa, x1 = 0.53	589.8
375.4 K, 4300 kPa, x1 = 0.53	593.6
375.4 K, 6900 kPa, x1 = 0.53	600.6
375.4 K, 9200 kPa, x1 = 0.53	607.4
375.4 K, 10500 kPa, x1 = 0.53	609.9
375.4 K, 17900 kPa, x1 = 0.53	622.3
375.4 K, 23800 kPa, x1 = 0.53	632
375.4 K, 24100 kPa, x1 = 0.53	631.5
375.4 K, 30900 kPa, x1 = 0.53	641.7
375.4 K, 37900 kPa, x1 = 0.53	651.5
375.4 K, 44800 kPa, x1 = 0.53	659.4
375.4 K, 51200 kPa, x1 = 0.53	666.4
375.4 K, 58800 kPa, x1 = 0.53	674.3
375.4 K, 63200 kPa, x1 = 0.53	678.1
375.4 K, 67400 kPa, x1 = 0.53	682
